Results taken from publication PMC6104039 (Nature Communications, 2018).
Several values for one entry are separate records, joined by “and”; a condition that tells them apart may be missing. Identical values can stand only once.

Tests used:
soleus muscle strips = experiment: Palmitate oxidation in soleus muscle strips pre-treated in vitro; parameters: species or system mice; settings: 1.5 h in vitro, 1 μM
Experimental: (§1) After a 30 min pre-incubation, muscles were transferred into vials containing 0.5 mCi/mL of [1-^14C]-palmitate in modified Krebs-Henseleit buffer for another 1 h. The reaction was stopped by removal of the muscles and addition of 1 M perchloric acid to the reaction mixture. ^14C-labelled CO2 was quantified as described above. The muscles were blotted dry and snap frozen in liquid nitrogen for subsequent lipid extraction and TLC. Muscles were homogenized using a Polytron (Kinematica, Littau-Lucerne, Switzerland) in 1.5 mL 2:1 chloroform-methanol (v/v). […] The upper aqueous phase was used to quantify ASM, and the lower organic phase was collected and dried under stream of N2, then reconstituted in hexane and spotted on a Silica Gel 60 F254 TLC plate. The TLC plate was developed in hexane/diethyl ether/glacial acetic acid (85:15:1), then air dried. TAG bands were visualised using iodine vapour staining, using an external standard to mark their position, then scraped into vials and quantified by liquid scintillation counting.

soleus muscles = experiment: 14C-palmitate oxidation and incorporation into TAG in isolated soleus muscles of treated mice; type: in vivo
Experimental: as §1

gastrocnemius muscle = experiment: Targeted analysis of ceramide, SM and HexCer in gastrocnemius muscle; type: in vivo, mice; parameters: HexCer 18:1/22:0 content of gastrocnemius muscle / SM 34:1 content of gastrocnemius muscle / SM 34:2 content of gastrocnemius muscle / SM 36:2 content of gastrocnemius muscle / SM 36:1 content of gastrocnemius muscle / SM 40:1 content of gastrocnemius muscle / SM 42:2 content of gastrocnemius muscle / SM 42:1 content of gastrocnemius muscle / Cer 18:1/16:0 content of gastrocnemius muscle / Cer 18:1/18:0 content of gastrocnemius muscle / Cer 18:2/18:0 content of gastrocnemius muscle / Cer 18:0/18:0 content of gastrocnemius muscle / Cer 18:1/22:0 content of gastrocnemius muscle / Cer 18:1/24:1 content of gastrocnemius muscle / Cer 18:0/24:1 content of gastrocnemius muscle / Cer 18:1/24:0 content of gastrocnemius muscle / HexCer 18:1/16:0 content of gastrocnemius muscle / HexCer 18:1/18:0 content of gastrocnemius muscle / HexCer 18:1/20:0 content of gastrocnemius muscle: unit not given beside the values

## C[C@@](N)(CO)CCc1ccc(OCc2ccc(Cl)c(Cl)c2)cc1 [P053, (S)-2-amino-4-(4-(3,4-dichlorobenzyloxy)phenyl)-2-methylbutan-1-ol]
Soleus muscle strips
  palmitate oxidation: not affected
Soleus muscles; 2 weeks, 5 mg/kg
  oxidation of 14C-palmitate in soleus muscles: significantly increased
Soleus muscles; 2 weeks, 5 mg/kg, 1 h incubation
  incorporation of 14C-palmitate into TAG: unchanged
Soleus muscles; P053 treatment
  increase of the rate of palmitate oxidation in muscle: 23%
Gastrocnemius muscle; 5 mg/kg daily
  C18 ceramide, C18 dihydroceramide and 18:2/18:0 ceramide in gastrocnemius muscle: significant reductions
Gastrocnemius muscle; Chow + P053, individual mice
  Cer 18:0/18:0 content of gastrocnemius muscle: 6.716 and 7.477 and 5.961 and 6.052 and 7.077 and 6.063 and 5.232 and 5.747 and 5.304 and 6.401
  Cer 18:0/24:1 content of gastrocnemius muscle: 3.2091 and 2.598 and 3.667 and 1.8279 and 1.954 and 2.772 and 2.055 and 2.027 and 2.139 and 3.699
  Cer 18:1/16:0 content of gastrocnemius muscle: 0.3484 and 0.3091 and 0.3437 and 0.3068 and 0.4605 and 0.637 and 0.2188 and 0.4293 and 0.2277 and 0.4584
  Cer 18:1/18:0 content of gastrocnemius muscle: 20.203 and 22.2043 and 20.4893 and 19.2549 and 21.0178 and 15.4813 and 13.2288 and 14.0008 and 17.6182 and 17.1195
  Cer 18:1/20:0 content of gastrocnemius muscle: 0.4999 and 0.7758 and 0.6909 and 0.4845 and 0.671 and 0.9486 and 0.5576 and 0.508 and 0.7146 and 0.7451
  Cer 18:1/22:0 content of gastrocnemius muscle: 2.697 and 2.247 and 2.924 and 2.061 and 2.474 and 3.27 and 1.828 and 2.047 and 1.902 and 3.1173
  Cer 18:1/24:0 content of gastrocnemius muscle: 7.198 and 5.637 and 7.43 and 4.359 and 4.709 and 6.914 and 4.421 and 4.245 and 5.265 and 6.526
  Cer 18:1/24:1 content of gastrocnemius muscle: 11.8242 and 9.129 and 9.681 and 7.066 and 8.758 and 11.6384 and 7.885 and 7.128 and 7.643 and 10.6448
  Cer 18:2/18:0 content of gastrocnemius muscle: 0.4658 and 0.5512 and 0.4225 and 0.4514 and 0.5661 and 0.3835 and 0.2283 and 0.4455 and 0.4165 and 0.4597
  HexCer 18:1/16:0 content of gastrocnemius muscle: 0.2006 and 0.1094 and 0.05472 and 0.08462 and 0.1035 and 0.3016 and 0.02008 and 0.2899 and 0.1794 and 0.1526
  HexCer 18:1/18:0 content of gastrocnemius muscle: 2.77 and 1.138 and 0.685 and 0.5505 and 1.7658 and 1.01 and 1.02 and 3.397 and 2.789 and 0.3088
  HexCer 18:1/20:0 content of gastrocnemius muscle: 4.98 and 2.2562 and 1.185 and 0.63 and 2.136 and 1.46 and 2.186 and 5.934 and 4.2225 and 0.5191
  HexCer 18:1/22:0 content of gastrocnemius muscle: 28.6994 and 10.5255 and 7.341 and 3.05 and 12.9786 and 10.4072 and 8.903 and 30.0855 and 20.1916 and 3.513
  HexCer 18:1/22:1 content of gastrocnemius muscle: 2.443 and 0.8441 and 0.5964 and 0.2415 and 0.9642 and 0.3777 and 0.6547 and 2.558 and 1.9817 and 0.2068
  HexCer 18:1/24:0 content of gastrocnemius muscle: 131.55 and 47.7053 and 35.5956 and 20.727 and 57.5213 and 45.8559 and 36.9456 and 110.769 and 86.5459 and 16.7978
  HexCer 18:1/24:1 content of gastrocnemius muscle: 55.5818 and 22.7923 and 17.8764 and 8.062 and 22.9046 and 20.0825 and 17.0776 and 61.9168 and 40.6919 and 8.475
  SM 34:1 content of gastrocnemius muscle: 55.2092 and 65.2319 and 37.406 and 53.6606 and 49.036 and 73.0423 and 41.7651 and 81.6186 and 53.5156 and 54.7372
  SM 34:2 content of gastrocnemius muscle: 2.561 and 2.363 and 1.4133 and 1.332 and 1.809 and 2.655 and 1.68 and 2.4957 and 1.926 and 1.425
  SM 36:1 content of gastrocnemius muscle: 242.303 and 230.3 and 206.587 and 243.389 and 210.049 and 199.927 and 174.992 and 270.736 and 215.295 and 156.154
  SM 36:2 content of gastrocnemius muscle: 3.724 and 3.017 and 3.098 and 3.4 and 2.856 and 3.2428 and 2.648 and 4.315 and 4.019 and 3.053
  SM 40:1 content of gastrocnemius muscle: 97.5537 and 51.1596 and 53.7207 and 21.6057 and 37.8369 and 48.3173 and 39.3705 and 88.0525 and 69.3339 and 48.817
  SM 42:1 content of gastrocnemius muscle: 88.2897 and 52.3856 and 29.1894 and 16.6817 and 42.3452 and 43.7529 and 25.0289 and 89.171 and 54.8125 and 29.4411
  SM 42:2 content of gastrocnemius muscle: 288.299 and 175.495 and 168.331 and 87.7791 and 166.49 and 221.175 and 113.727 and 338.716 and 212.277 and 185.512
